# Test results: BindingDB's records for PubMed 10779381 (University of Ferrara, 2000)
# “And” between values parts separate entries of the source, which are not always exact repeats. Equal entries are not always repeated.
# Experiments:
# Adenosine receptor A3 = molecular target: T1, Adenosine receptor A3 (Homo sapiens, UniProt P0DMS8)
# T1 sequence (P0DMS8 whole entry): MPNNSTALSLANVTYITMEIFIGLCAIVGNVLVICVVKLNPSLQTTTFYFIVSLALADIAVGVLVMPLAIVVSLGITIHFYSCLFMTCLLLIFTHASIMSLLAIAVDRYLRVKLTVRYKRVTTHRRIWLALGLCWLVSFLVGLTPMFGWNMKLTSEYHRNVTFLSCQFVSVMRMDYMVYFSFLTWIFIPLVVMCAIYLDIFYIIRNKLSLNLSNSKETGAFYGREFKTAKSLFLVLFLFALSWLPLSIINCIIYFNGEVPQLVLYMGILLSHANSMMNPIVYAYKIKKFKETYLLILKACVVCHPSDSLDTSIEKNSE
# Adenosine receptor A1 = molecular target: T2, Adenosine receptor A1 (Rattus norvegicus, UniProt P25099)
# T2 sequence (P25099 whole entry): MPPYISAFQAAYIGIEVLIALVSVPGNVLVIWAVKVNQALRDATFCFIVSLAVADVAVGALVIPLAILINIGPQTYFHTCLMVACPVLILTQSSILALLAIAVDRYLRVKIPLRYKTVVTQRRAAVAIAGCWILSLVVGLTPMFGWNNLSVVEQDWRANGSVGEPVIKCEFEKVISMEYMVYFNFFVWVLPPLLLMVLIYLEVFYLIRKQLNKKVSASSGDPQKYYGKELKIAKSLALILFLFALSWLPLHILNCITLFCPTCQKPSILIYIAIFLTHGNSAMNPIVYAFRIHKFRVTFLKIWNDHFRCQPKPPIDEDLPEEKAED
Ki (Adenosine receptor A3),Ki (Adenosine receptor A1),SMILES
–,> 10 µM,CCCn1cc2c(nc(NC(=O)Nc3ccc(OC)cc3)n3nc(-c4ccco4)nc23)n1 [J1.251.181G]
0.48 nM and 0.98 nM,–,"CCCn1cc2c(nc(NC(=O)Nc3cccc(Cl)c3)n3nc(-c4ccco4)nc23)n1 [1-(3-chlorophenyl)-3-[2-(furan-2-yl)-8-propyl-8H-pyrazolo[4,3-e][1,2,4]triazolo[1,5-c]pyrimidin-5-yl]urea]"
> 10000 nM,–,Nc1nc2c(cnn2CCc2ccccc2)c2nc(-c3ccco3)nn12

SMILES,Ki (Adenosine receptor A3),Ki (Adenosine receptor A1)
Nc1nc2ccc(Cl)cc2c2nc(-c3ccco3)nn12,90 nM and 65 nM,–
